Source: patent US20220387359A1, “SYNERGISTIC INHIBITORS OF CREB-MEDIATED GENE TRANSCRIPTION” (OREGON HEALTH & SCIENCE UNIVERSITY, priority 2019, published 2022)
Structures can show the parent of a compound that is named as a salt. Where two headings read alike, the source gives them in different places.

Tests used:
[1] = aqueous solubility in ddH2O; type: physicochemical; conditions: water
From the text: Furthermore, we discovered a novel compound that can potentiate 666-15's inhibitory effect against CREB-mediated gene transcription in living cells.
The synthesis of compound 3 is presented in Scheme 1. […] Under the coupling conditions we used before (BOP, DIPEA, room temperature),^13 a mixture of compositional isomers 6 and 7 (2-(3-(3-((tert-butoxycarbonyl)amino)propoxy)-2-naphthamido)-5-chlorophenyl 3-(2-((tert-butoxy carbonyl)amino)ethoxy)-2-naphthoate) involving acyl group swapping was obtained. These two isomers were only partially separable by conventional silica gel column chromatograph. […] The formation of the unanticipated alternative ester 7 was likely a result of generation of imide intermediate 8 (2-(3-(2-((tert-butoxycarbonyl)amino)ethoxy)-2-naphthamido)-5-chloro-3-hydroxyphenyl 3-(3-((tert-butoxycarbonyl) amino)propoxy)-2-naphthoate) although it was not detected from the reaction mixture. The intermediate 8 could be generated either before the formation of 6 (2-(3-(2-((tert-butoxycarbonyl) amino)ethoxy)-2-naphthamido)-5-chlorophenyl 3-(3-((tert-butoxycarbonyl)amino) propoxy)-2-naphthoate) or after 6 was formed. Once 8 was produced, it could generate either 6 or 7 through an ester bond formation (Scheme 1). […] The Boc groups (tert-butyloxycarbonyl protecting groups) in 6 were then deprotected under acidic condition (HCl, DCM) to give 3 uneventfully. […]

[2] = system: CREB-mediated gene transcription; assay: CREB transcription renilla luciferase reporter assay in HEK 293T cells; type: cell-based; conditions: for effect of combination with 666-15 on inhibition of CREB-mediated gene transcription: compound combined with 666-15; for IC50: Homo sapiens; for combination index (CI) in inhibiting CREB-mediated gene transcription: Chou-Talalay
Description: ^a The IC50 refers to the concentration needed to inhibit 50% of the CREB-mediated gene transcription in HEK 293T cells using a transcription renilla luciferase reporter assay. The data are presented as mean±standard deviation (SD) of at least two independent experiments, which were performed in triplicates.
To test this possibility, we employed a transcription luciferase reporter assay in HEK 293T cells.^22 Briefly, the cells were transfected with a CREB renilla luciferase reporter plasmid (CRE-RLuc). This plasmid expresses renilla luciferase under the control of three tandem copies of CRE in the promoter region.
Inhibition of CREB-mediated gene transcription. HEK 293T cells were transfected with CRE-RLuc. Then the cells were treated with increasing concentrations of individual compounds (FIG. 2A) or drug combinations (FIG. 2B) for 30 min before the addition of Fsk (10 μM) for 5 h. The renilla luciferase activity was normalized to the protein concentration in each well and expressed as relative luciferase unit (RLU)/μg protein. The errors are SEM from one representative experiment in triplicate.
HEK293T cells in a well of 6-well plate were transfected with a plasmid (1 μg) encoding renilla luciferase under the control of three copies of CRE (pCRE-RLuc) using Lipofectamin^2000 (Life Technologies) for 3 h. Then the cells were replated into a 96-well plate and the cells were allowed to attach to the bottom of the plate for overnight. The cells were treated with different concentrations of the compounds for 30 min, when Fsk (10 μM) was added to the cells. The cells were further incubated for 5 h at 37° C. The media were removed and the cells were lysed in 30 μl 1× renilla luciferase lysis buffer (Promega) and the renilla luciferase activity was measured using the renilla luciferase assay system (Promega). The protein concentration in each well was determined using the Protein Assay Dye Reagent Concentrate (Bio-rad). The luciferase activity in each well was normalized to the protein concentration and expressed as relative luciferase unit (RLU)/μg protein. The IC50 was calculated in Prism 5.0 using the non-linear regression analysis.

[3] = from reference 15; cited from earlier work
KIX-KID interaction = KIX-KID interaction (Homo sapiens, UniProt Q92793); assay: split renilla luciferase complementation assay of KIX-KID interaction; type: cell-based
Chain of KIX-KID interaction (Q92793 587-666 limits assumed): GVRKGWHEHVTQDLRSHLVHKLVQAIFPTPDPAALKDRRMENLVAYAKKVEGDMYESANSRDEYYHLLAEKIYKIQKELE

MDA-MB-231 cells = assay: cell growth inhibition MTT assay; type: cell-based
Description: Then the viable cells were quantified by the MTT reagent. […] The data are presented as mean+SEM. The SEM was from one representative experiment performed in duplicates.
The cells were plated in 96-well plates at 1,000 cells/well and allowed to attach to the bottom of the plate for overnight. Then the cells were treated with different concentrations of compounds for 72 h at 37° C. At the end of treatment, the viable cells were determined by incubating cells with MTT reagent (0.5 mg/mL) in the complete tissue culture media for 3 h. Then the media were removed and the formed purple formazan was dissolved in DMSO for quantification by absorbance at 570 nm using a SpectraMax i3 plate reader (Molecular Devices). The percent of growth is defined as 100×(Atreated−Ainitial)/(Acontrol−Ainitial), where Atreated represents absorbance in wells treated with a compound, Ainitial represents the absorbance at time 0, and Acontrol denotes media-treated cells.

NR4A2 = assay: endogenous CREB target gene expression by qRT-PCR in HEK 293T cells; type: cell-based; conditions: Fsk-stimulated HEK 293T cells
Description: Then the cells were subjected to qRT-PCR analysis after the total RNA was isolated using HPRT as a reference gene.
Then the cells were stimulated with Fsk (10 μM) for 45 min. The total RNA was isolated using NucleoSpin® RNA isolation kit (Takara Bio). Following RNA isolation, the first strand cDNA was synthesized using PrimeScript™ 1st strand cDNA synthesis kit (Takara Bio) with random hexamers as the primers. Quantitative PCR reactions were performed with TB Green® Advantage® qPCR Premix (Takara Bio). The relative mRNA level was determined with double delta Ct method using HPRT as a reference gene.

[4] = stability of stock solution in DMSO; type: physicochemical; conditions: long-term storage of stock solution
[5] = conversion of ester 3 in complete cell culture media (DMEM with 10% FBS), HPLC; type: in vitro ADME; conditions: 37° C.
Description: With the desired compound 3 in hand, we first investigated the possibility of transformation of 3 into 666-15 in the complete cell culture media (Dulbecco's Modified Eagle Medium with 10% fetal bovine serum (FBS)). […] In stark contrast to the structural congener 2,^15 only a small amount of 666-15 was generated under the reaction condition. In order to investigate if simple ester hydrolysis was occurring to generate products 9 and 10 (FIG. 2A), we compared the main peaks eluted at 10.5 min and 11.2 min with standard samples of 9 and 10 by HPLC.
Compound 3 (200 μM) was incubated with complete tissue culture media (DMEM with 10% FBS) at 37° C. for various time periods. An aliquot of 10 μl was taken at a given time point and mixed with acetonitrile (90 μL). The mixture was centrifuged at 14,000×rpm for 5 min at room temperature in a tabletop centrifuge to precipitate proteins. The supernatant was collected and analyzed by HPLC eluting with a linear of water and acetonitrile, both of which contained 0.1% TFA.

[6] = HEK 293T cells, CRE-RLuc reporter, Fsk stimulated, mean ± SD of at least two independent experiments, read-out: CREB inhibition (IC50)

For NCCCOc1cc2ccccc2cc1C(=O)NCCOc1cc2ccccc2cc1C(=O)Nc1ccc(Cl)cc1O [Compound 666-15, 3-(3-aminopropoxy)-N-(2-((3-((4-chloro-2-hydroxyphenyl)carbamoyl)naphthalen-2-yl)oxy)ethyl)-2-naphthamide], the solubility [1] was less than 0.5 mg/mL.

With NCCCOc1cc2ccccc2cc1C(=O)Oc1cc(Cl)ccc1NC(=O)c1cc2ccccc2cc1OCCN (as salt: hydrochloride) [Compound 3, 2-(3-(2-Aminoethoxy)-2-naphthamido)-5-chlorophenyl 3-(3-Aminopropoxy)-2-naphthoate Dihydrochloride] the melting point was 216 to 217 °C.

For O=C1NCCOc2cc3ccccc3cc21 [Compound 12, 3,4-dihydronaphtho[2,3-f][1,4]oxazepin-5(2H)-one], the “CREB inhibition potency” value ([2]; HEK 293T cells, compound alone) was “inactive”, the “effect of combination with 666-15 on inhibition of CREB-mediated gene transcription” value ([2]; HEK 293T cells) was “did not produce further inhibition of CREB-mediated gene transcription” and the IC50 [2, 6] was greater than 50 µM. It also gave a melting point of 128 to 129 °C.

In the case of NCCCOc1cc2ccccc2cc1C(=O)Nc1ccc(Cl)cc1OC(=O)c1cc2ccccc2cc1OCCCN [Compound 2, 2-(3-(3-aminopropoxy)-2-naphthamido)-5-chlorophenyl 3-(3-aminopropoxy)-2-naphthoate], the “aqueous solubility in ddH2O” value [3] is given as greater than 100 mg/mL.

In the case of NCCCOc1cc2ccccc2cc1C(=O)Nc1ccc(Cl)cc1O [Compound 11, 3-(3-aminopropoxy)-N-(4-chloro-2-hydroxyphenyl)-2-naphthamide], the IC50 (KIX-KID interaction) is reported as greater than 50 µM, the “combination index (CI) in inhibiting CREB-mediated gene transcription” value ([2]; 11 (5 μM) combined with 666-15 0.01 μM) is reported as 2.87 and the “combination index (CI) in inhibiting CREB-mediated gene transcription” value ([2]; 11 (5 μM) combined with 666-15 0.05 μM) is reported as 0.31. For the same molecule, the “combination index (CI) in inhibiting CREB-mediated gene transcription” value ([2]; 11 (5 μM) combined with 666-15 0.1 μM) was 0.17, the “combination index (CI) in inhibiting CREB-mediated gene transcription” value ([2]; 11 (5 μM) combined with 666-15 0.5 μM) was 0.37 and the “combination index (CI) in inhibiting CREB-mediated gene transcription” value ([2]; 11 (5 μM) combined with 666-15 1.0 μM) was 0.56. The “combination index (CI) in inhibiting CREB-mediated gene transcription” value ([2]; 11 (5 μM) combined with 666-15 5.0 μM) was 2.41, the “effect of combination with 666-15 on inhibition of CREB-mediated gene transcription” value ([2]; HEK 293T cells) was “significantly potentiated activity of 666-15” and the IC50 [2, 6] was 26.3 ± 13.6 µM. For the same molecule, the “combination index (CI) of anti-proliferative effect” value (MDA-MB-231 cells; 11 (0.5 or 1.0 μM) combined with 666-15, 72 h) was “less than 1.0”, the “antiproliferative effect (cell growth)” value (MDA-MB-231 cells; 11 alone, 0.5 or 1.0 μM, 72 h) was “did not appreciably inhibit the cell growth” and the “expression level of NR4A2” value (NR4A2; 666-15 (50 nM) combined with compound 11 (5 μM)) was “significant inhibition of NR4A2 transcription was observed”. For the same molecule, the “expression level of NR4A2” value (NR4A2; compound 11 alone, 5 μM) was “did not inhibit the expression of NR4A2”.

In the case of NCCCOc1cc2ccccc2cc1C(=O)Oc1cc(Cl)ccc1NC(=O)c1cc2ccccc2cc1OCCN [Compound 3, 2-(3-(2-Aminoethoxy)-2-naphthamido)-5-chlorophenyl 3-(3-Aminopropoxy)-2-naphthoate Dihydrochloride], the “stability in DMSO” value [4] is reported as “unstable in DMSO for long-term storage”, the “conversion in complete cell culture media” value [5] is reported as “rapidly converted into four new product peaks” and the IC50 ([2]; HEK-293T, read-out: CREB inhibition (IC50, μM)) is reported as 0.25 ± 0.11 µM. For the same molecule, the solubility [1] was greater than 100 mg/mL.
